Results from PMC4997885, “In Vitro and In Vivo Assessments of Cardiovascular Effects with Omadacycline” (Antimicrobial Agents and Chemotherapy, 2016).
Values after ≈ are worked out from the molar mass of the structure shown.

Columns and labels:
[1] = target: T1, M2 (muscarinic subtype 2 acetylcholine receptor) (Homo sapiens, UniProt P08172); experiment: radioligand binding inhibition screen; conditions: read-out: % inhibition or stimulation^a
T1 construct: gene CHRM2; human recombinant receptor
T1 sequence (P08172 1-466): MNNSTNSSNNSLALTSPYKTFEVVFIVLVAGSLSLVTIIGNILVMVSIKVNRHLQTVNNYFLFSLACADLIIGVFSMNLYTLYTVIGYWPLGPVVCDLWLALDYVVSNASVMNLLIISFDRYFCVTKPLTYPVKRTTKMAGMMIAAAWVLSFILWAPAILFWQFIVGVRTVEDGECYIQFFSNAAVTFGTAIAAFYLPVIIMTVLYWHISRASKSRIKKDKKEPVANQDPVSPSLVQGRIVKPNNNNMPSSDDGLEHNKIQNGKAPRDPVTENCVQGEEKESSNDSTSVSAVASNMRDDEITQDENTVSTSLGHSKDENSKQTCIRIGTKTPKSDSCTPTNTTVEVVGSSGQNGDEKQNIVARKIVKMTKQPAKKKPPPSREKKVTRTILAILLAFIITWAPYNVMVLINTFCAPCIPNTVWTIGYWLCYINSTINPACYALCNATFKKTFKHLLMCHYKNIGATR
Text: radioligand binding inhibition screen on M2 (muscarinic subtype 2 acetylcholine receptor)

[2] = target: T2, M3 (muscarinic receptor M3) (Homo sapiens, UniProt P20309); experiment: radioligand binding inhibition; conditions: […] test; read-out: EC50 or IC50
T2 construct: gene CHRM3; human recombinant receptor
T2 sequence (P20309 whole entry): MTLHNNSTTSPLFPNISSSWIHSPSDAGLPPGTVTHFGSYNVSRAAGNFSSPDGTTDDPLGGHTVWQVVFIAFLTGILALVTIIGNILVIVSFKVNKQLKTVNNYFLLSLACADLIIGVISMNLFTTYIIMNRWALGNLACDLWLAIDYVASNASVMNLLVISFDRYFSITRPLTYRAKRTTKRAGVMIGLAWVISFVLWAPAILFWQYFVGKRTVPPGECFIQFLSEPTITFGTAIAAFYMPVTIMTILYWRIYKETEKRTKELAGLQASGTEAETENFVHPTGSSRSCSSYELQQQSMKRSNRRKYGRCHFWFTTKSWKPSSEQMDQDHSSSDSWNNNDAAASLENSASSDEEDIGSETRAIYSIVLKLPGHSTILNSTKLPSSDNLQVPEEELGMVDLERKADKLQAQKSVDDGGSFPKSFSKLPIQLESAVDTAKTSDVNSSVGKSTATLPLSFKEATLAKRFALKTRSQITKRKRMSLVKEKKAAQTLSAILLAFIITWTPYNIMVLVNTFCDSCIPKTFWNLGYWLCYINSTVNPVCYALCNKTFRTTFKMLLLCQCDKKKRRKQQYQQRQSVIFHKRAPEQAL
Text: radioligand binding inhibition on M3 (muscarinic receptor M3)

M5 = target: T3, M5 (Homo sapiens, UniProt P08912); experiment: radioligand binding inhibition; conditions: […] separate tests; read-out: EC50 or IC50
T3 construct: gene CHRM5; human recombinant receptor
T3 sequence (P08912 1-532): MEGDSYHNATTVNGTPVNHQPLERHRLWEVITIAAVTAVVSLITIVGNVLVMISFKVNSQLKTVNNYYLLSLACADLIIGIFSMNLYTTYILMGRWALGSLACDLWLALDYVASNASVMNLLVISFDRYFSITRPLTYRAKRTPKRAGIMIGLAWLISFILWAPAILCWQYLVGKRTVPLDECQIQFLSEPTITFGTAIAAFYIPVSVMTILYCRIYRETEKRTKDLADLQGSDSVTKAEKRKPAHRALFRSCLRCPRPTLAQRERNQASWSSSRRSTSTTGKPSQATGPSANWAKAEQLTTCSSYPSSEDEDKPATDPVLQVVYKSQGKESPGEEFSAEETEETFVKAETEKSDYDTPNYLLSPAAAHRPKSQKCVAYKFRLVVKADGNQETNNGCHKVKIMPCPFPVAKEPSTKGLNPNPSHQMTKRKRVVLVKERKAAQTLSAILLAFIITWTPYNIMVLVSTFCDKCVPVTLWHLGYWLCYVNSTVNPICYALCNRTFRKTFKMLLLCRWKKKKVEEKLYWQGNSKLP
Text: radioligand binding inhibition on M5

[3] = target: T1, M2 (muscarinic subtype 2 acetylcholine receptor); experiment: functional M2 agonist assay; format: cell-based; conditions: agonist mode; […] separate tests; read-out: EC50 or IC50
Text: functional M2 agonist assay on M2 (muscarinic subtype 2 acetylcholine receptor)

M1 = target: T4, M1 (Homo sapiens, UniProt P11229); experiment: radioligand binding inhibition; conditions: […] test; read-out: EC50 or IC50
T4 construct: gene CHRM1; human recombinant receptor
T4 sequence (P11229 1-460): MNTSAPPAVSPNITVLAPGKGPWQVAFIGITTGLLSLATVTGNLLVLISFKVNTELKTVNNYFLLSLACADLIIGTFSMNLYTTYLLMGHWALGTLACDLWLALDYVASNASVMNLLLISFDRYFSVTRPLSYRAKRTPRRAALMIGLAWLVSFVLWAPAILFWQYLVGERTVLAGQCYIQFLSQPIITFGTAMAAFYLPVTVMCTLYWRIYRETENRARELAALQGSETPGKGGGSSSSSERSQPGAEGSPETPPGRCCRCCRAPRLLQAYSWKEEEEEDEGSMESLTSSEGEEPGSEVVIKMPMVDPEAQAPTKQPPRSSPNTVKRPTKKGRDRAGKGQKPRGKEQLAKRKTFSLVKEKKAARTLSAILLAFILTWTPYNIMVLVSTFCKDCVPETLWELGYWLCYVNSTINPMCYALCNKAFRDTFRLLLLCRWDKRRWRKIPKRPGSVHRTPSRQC
Text: radioligand binding inhibition on M1

M4 = target: T5, M4 (Homo sapiens, UniProt P08173); experiment: radioligand binding inhibition; conditions: […] separate tests; read-out: EC50 or IC50
T5 construct: gene CHRM4; human recombinant receptor
T5 sequence (P08173 1-479): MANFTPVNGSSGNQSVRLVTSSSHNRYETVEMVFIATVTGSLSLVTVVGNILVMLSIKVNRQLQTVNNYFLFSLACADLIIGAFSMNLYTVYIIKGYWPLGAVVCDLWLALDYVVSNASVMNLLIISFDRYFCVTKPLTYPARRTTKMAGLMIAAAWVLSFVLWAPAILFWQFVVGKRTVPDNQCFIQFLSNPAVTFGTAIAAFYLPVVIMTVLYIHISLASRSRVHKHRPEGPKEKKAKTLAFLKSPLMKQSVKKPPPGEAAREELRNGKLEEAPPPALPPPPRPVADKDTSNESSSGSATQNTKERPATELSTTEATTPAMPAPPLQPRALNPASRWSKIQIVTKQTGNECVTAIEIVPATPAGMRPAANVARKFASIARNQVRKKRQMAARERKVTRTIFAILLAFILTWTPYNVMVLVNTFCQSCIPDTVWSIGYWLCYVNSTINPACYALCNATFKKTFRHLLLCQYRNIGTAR
Text: radioligand binding inhibition on M4

[4] = target: T1, M2 (muscarinic subtype 2 acetylcholine receptor); experiment: functional M2 antagonist assay; format: cell-based; conditions: antagonist mode; range of […] separate tests ([…])
[5] = target: T1, M2 (muscarinic subtype 2 acetylcholine receptor); experiment: radioligand binding inhibition; conditions: range of […] separate tests ([…] and […])
[6] = target: T6, hERG (human ether-a-go-go-related gene) channel (Homo sapiens, UniProt Q12809); experiment: hERG tail current electrophysiology, HEK293 cells; format: cell-based; conditions: room temperature; […] tested; corrected for vehicle rundown; point-to-point fit
T6 construct: gene KCNH2; hERG cDNA stably transfected in HEK293 cells; homotetramer
T6 sequence (Q12809 whole entry): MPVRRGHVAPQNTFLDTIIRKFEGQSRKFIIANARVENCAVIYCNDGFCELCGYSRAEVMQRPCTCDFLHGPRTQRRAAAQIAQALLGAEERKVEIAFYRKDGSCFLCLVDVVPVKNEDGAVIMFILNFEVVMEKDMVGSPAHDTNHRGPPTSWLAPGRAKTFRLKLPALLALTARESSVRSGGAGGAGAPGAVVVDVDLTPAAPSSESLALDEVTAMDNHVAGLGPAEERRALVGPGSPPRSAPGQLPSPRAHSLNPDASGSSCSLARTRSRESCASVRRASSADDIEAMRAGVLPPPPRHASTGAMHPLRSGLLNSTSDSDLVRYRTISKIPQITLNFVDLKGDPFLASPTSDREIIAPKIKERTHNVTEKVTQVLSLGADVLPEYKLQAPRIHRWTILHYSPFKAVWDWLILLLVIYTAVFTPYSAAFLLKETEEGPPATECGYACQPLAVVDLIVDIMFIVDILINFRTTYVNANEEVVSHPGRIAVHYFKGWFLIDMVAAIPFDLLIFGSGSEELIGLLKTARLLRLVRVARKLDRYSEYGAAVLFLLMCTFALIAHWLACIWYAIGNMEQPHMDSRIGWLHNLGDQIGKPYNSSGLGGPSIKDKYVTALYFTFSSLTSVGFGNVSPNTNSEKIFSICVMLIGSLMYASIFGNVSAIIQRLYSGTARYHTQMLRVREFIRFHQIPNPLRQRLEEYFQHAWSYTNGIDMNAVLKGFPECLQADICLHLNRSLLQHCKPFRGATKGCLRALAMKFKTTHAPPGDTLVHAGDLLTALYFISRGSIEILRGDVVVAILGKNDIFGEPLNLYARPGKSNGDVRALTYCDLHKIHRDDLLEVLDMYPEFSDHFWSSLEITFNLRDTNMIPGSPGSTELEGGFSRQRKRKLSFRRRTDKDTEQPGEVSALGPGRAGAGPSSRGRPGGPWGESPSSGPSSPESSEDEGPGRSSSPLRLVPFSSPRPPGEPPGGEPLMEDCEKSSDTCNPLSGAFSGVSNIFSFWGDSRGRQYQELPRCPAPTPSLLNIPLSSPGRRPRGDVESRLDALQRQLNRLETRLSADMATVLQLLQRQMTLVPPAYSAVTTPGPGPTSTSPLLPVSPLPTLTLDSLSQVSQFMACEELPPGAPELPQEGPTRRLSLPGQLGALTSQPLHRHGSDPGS

CN(C)c1cc(CNCC(C)(C)C)c(O)c2c1C[C@H]1C[C@H]3[C@H](N(C)C)C(=O)C(C(N)=O)=C(O)[C@@]3(O)C(=O)C1=C2O [omadacycline]
inhibition at 10 µM [1]: 82%
IC50 [2]: > 30 µM
IC50 (M5): > 30 µM
EC50 [3]: > 30 µM
IC50 (M1): 29 µM
IC50 (M4): > 30 µM
IC50 [4]: 21 to 28 µM
IC50 [5]: 4.2 to 4.3 µM
IC25 [6]: 166 µg/mL (≈ 298 µM)
